Patent publication US20090221624A1, “4-AMINOQUINOLINE COMPOUNDS FOR TREATING VIRUS-RELATED CONDITIONS” (priority 2005, published 2009)

What was measured:
[1] = system: HCV replicon (Clone A cells, Huh7, subgenomic hepatits C virus RNA); experiment: HCV Neo screening assay (HCV replicon, NPTII ELISA); format: cell-based, hepatitis C virus; conditions: for EC50 / inhibition at 25 µM: Hepatitis C virus, Huh-7; for EC50: Secondary Data, HCV; for inhibition at 25 µM: primary screening, 25 μM final concentration, 24 hours, percent inhibition of viral replication, read-out: HCV Inh; for HCV TI: therapeutic index CC50/EC50, HCV
[2] = in vitro
[3] = system: RSV minigenome; experiment: RSV minigenome-dependent β-galactosidase expression assay (RSV β-Gal); format: cell-based, respiratory syncytial virus; conditions: for EC50 / inhibition at 25 µM: human respiratory syncytial virus; for EC50: Secondary Data, RSV, read-out: RSV EC50; for inhibition at 25 µM: primary screening, 25 μM final concentration, 24 hours, percent inhibition of viral replication, read-out: RSV Inh; for RSV TI: therapeutic index CC50/EC50, RSV
[4] = system: DNG (D2-hRuPac cells); experiment: DNG antiviral activity, D2-hRuPac cells, Renilla luciferase; format: cell-based, Dengue fever virus; conditions: Dengue virus, secondary screening
[5] = system: SINV (SR19-F-luc cells); experiment: SINV antiviral activity, SR19-F-luc cells, Firefly luciferase; format: cell-based; conditions: Sindbis virus; for inhibition at 25 µM: primary screening, 25 μM final concentration, 24 hours, percent inhibition of viral replication, read-out: SINV Inh; for EC50: secondary screening, SR19-F-luc cells
[6] = system: WNV (WN-hRuPac cells); experiment: WNV antiviral activity, WN-hRuPac cells, Renilla luciferase; format: cell-based, West Nile virus; conditions: for EC50 / inhibition at 25 µM: West Nile virus; for EC50: Secondary Data, WNV, read-out: WNV EC50; for inhibition at 25 µM: primary screening, 25 μM final concentration, 24 hours, percent inhibition of viral replication, read-out: WNV Inh; for WNV TI: therapeutic index CC50/EC50, WNV
[7] = system: EBOV minigenome; experiment: microbe, parasite or virus in culture; format: cell-based, Ebola virus; conditions: Zaire ebolavirus; for inhibition at 25 µM: 24 h, read-out: EBOV Inh; for EC50: read-out: EBOV EC50
[8] = system: YFV (YF-hRuPac cells); experiment: microbe, parasite or virus in culture; format: cell-based, yellow fever virus; conditions: for inhibition at 25 µM / EC50: Yellow fever virus; for inhibition at 25 µM: 24 h, read-out: YFV Inh; for EC50: read-out: YFV EC50

SMILES	EC50 [1]	inhibition at 25 µM [1]	HCV TI [1]	CC50 ([2]; DNG CC50)	CC50 ([2]; EBOV CC50)	CC50 ([2]; RSV CC50)	CC50 ([2]; SINV CC50)	CC50 ([2]; WNV CC50)	CC50 ([2]; YFV CC50)	EC50 [3]	inhibition at 25 µM [3]	RSV TI [3]	inhibition at 25 µM [5]	EC50 [6]	inhibition at 25 µM [6]	WNV TI [6]	inhibition at 25 µM [7]	YFV TI [8]	inhibition at 25 µM [8]	EC50 [8]	also measured
Cc1cc(Nc2ccc(C)c(C)c2)c2cc(Cl)ccc2n1 [Compound 47]	11 µM	149%	0.71	56 µM	56 µM	56 µM	56 µM	56 µM	56 µM	3.96 µM	96.4%	14.14	61.4%	8.66 µM	73%	6.47	49.5%	2.86	77.7%	19.6 µM	CC50 ([2]; HCV CC50): 7.84 µM; EC50 [4]: 39.4 µM; EC50 [5]: 7.23 µM; EC50 [7]: 75 µM
Cc1ccc2nc(C)cc(NCc3ccccc3)c2c1 [Compound 18]		36.9%		56.4 µM	56.4 µM	56.4 µM	56.4 µM	56.4 µM	56.4 µM	5.57 µM	88.6%	10.12	54.4%	21.3 µM	63.9%	2.65	-29.5%	6.21	61.5%	9.07 µM	EC50 [4]: 31.5 µM; EC50 [5]: 15.3 µM
CCOC(=O)c1cnc2c(OC)cccc2c1NCc1ccco1 [Compound 67]		5.39%		29.9 µM	29.9 µM	29.9 µM	29.9 µM	29.9 µM	29.9 µM	1.2 µM	98.3%	24.88	68%		33.5%		86.6%		70.7%		EC50 [7]: 20.1 µM
Cc1cc(Nc2ccc(C)c(Cl)c2)c2cccc(C)c2n1 [Compound 50]	8.62 µM	138%	0.85	66.2 µM	66.2 µM	66.2 µM	66.2 µM	66.2 µM	66.2 µM	6.76 µM	85.5%	9.79	65.8%	6.3 µM	82%	10.51	42.6%	19.41	92.2%	3.41 µM	CC50 ([2]; HCV CC50): 7.32 µM
CCOC(=O)c1cnc2c(OC)cccc2c1NCc1cccnc1 [Compound 68]		44.7%		51 µM	51 µM	51 µM	51 µM	51 µM	51 µM	3 µM	98.9%	17	72.8%		49.7%		74.5%		71.8%		EC50 [7]: 68.7 µM
CCOc1ccc2nc(C)cc(Nc3ccc(Cl)cc3)c2c1 [Compound 59]	6.07 µM	140%	1.23	21.2 µM	21.2 µM	21.2 µM	21.2 µM	21.2 µM	21.2 µM	3.26 µM	99.7%	6.5	93.5%	10.9 µM	83.7%	1.94	92.2%	4.82	84.6%	4.4 µM	CC50 ([2]; HCV CC50): 7.45 µM; EC50 [7]: 3.23 µM
Cc1ccc(Nc2c3c(nc4ccc(C)cc24)CCC3)cc1 [Compound 28]	7.47 µM	155%	0.91	43.8 µM	43.8 µM	43.8 µM	43.8 µM	43.8 µM	43.8 µM	4.58 µM	93.7%	9.56	81.3%	17.4 µM	75.2%	2.52	19.2%	6.45	75%	6.79 µM	CC50 ([2]; HCV CC50): 6.82 µM; EC50 [5]: 2.73 µM
